Laboratory results reported in patent US20050170345A1, “Neuroglobin is up-regulated by and protects neurons from hypoxic-ischemic injury” (priority 2001, published 2005).
“Also recorded” adds a separate entry of the source.

Experiments:
cGMP = experiment: Intracellular cGMP content in HN33 cells (enzyme immunoassay); type: cell-based, mouse
Protocol: HN33 cells (4×10^4 cells in 100 μl) were plated on 96-well microtiter plates and treated with 50 μM hemin for 2, 8, 16, or 24 hours. Intracellular cGMP concentrations were measured in quadruplicate using a cGMP enzyme-immunoassay system (Amersham Pharmacia).

[1] = test system: vascular endothelial growth factor; conditions: aortic smooth muscle cells; cited from earlier work
[2] = test system: transient forebrain ischemia; conditions: rats, direct administration after transient forebrain ischemia; cited from earlier work
Ngb mRNA = Ngb mRNA expression in HN33 cells (RT-PCR, quantitative RT-PCR, Northern blot); type: cell-based, mouse
Protocol: (§1) HN33 cells were cultured as described (Lee et al. (1990) J Neurosci. 10: 1779-1787; Shi et al. (1998) J Neurochem., 70:1035-1044; Jin et al. (2000) Proc Nati Acad Sci USA., 97:10242-10247). Cells were plated at 4×10^5 cells/well onto uncoated, 6-well plastic culture dishes in Dulbecco's modified Eagle's medium containing 10% (v/v) fetal bovine serum, 100 units/ml of penicillin and 100 μg/ml of streptomycin, and maintained at 37° C. in humidified 95% air/5% CO2. Cells were treated with hemin (typically 50 μM) or 8-Br-cGMP (10 μM) for up to 3 days, without daily replacement. To suppress sGC or PKG activity, cells were pretreated for 1 hour with inhibitors before adding other reagents.
RT-PCR and Northern blot analyses were carried out as described previously (Zhu and Zhang (1999) Biochem Biophys Res Commun., 258:87-93). Briefly, total RNA from treated and untreated cells was extracted using a RNeasy Mini Kit (QIAGEN Operon, Valencia, Calif.), and DNA-free total RNA (2 μg per sample) was reverse-transcribed into first-strand cDNA using the Reverse Transcription System and Oligo-dT12-18 (GIBCO-BRL, Rockville, Md.) (Id.). Sequences of the primers used for PCR amplification were: Ngb forward, 5′ CTCTGGAACATGGCACTGTC 3′ (nt 135-154, SEQ ID NO:7); Ngb reverse, 5′ GCACTGGCTCGTCTCTTACT 3′ (nt 547-528, SEQ ID NO:8); β-actin forward, 5′ CACAGGCATTGTGATGGACTC 3′ (nt 524-544, SEQ ID NO:9); β-actin reverse, 5′ GCTCAGGAGGAGCAATGATCT 3′ (nt 582-563, (SEQ ID NO:10). Primers were designed based on the published sequences of these genes and were synth esized by QIAGEN Operon. All PCR primer pairs gave rise to only one discrete band of the expected size. PCR reactions were carried out in a total volume of 25 μl containing 2 μl cDNA, 1×PCR buffer (Boehringer Mannheim, Mannheim, FRG), 200 μM dNTPs, 0.6 U Taq DNA polymerase (Boehringer Mannheim), and 0.2 μM primers. The optimal conditions for amplification (temperature and cycle number) were determined experimentally according to previously published procedures (Id.). Different ratios of Ngb to b-actin primer pairs were tested to ensure that Ngb and b-actin were amplified with similar efficiency, and a kinetic study was undertaken to establish the number of cycles sufficient to detect both Ngb and b-actin without reaching saturation for either. The parameters chosen for PCR amplification were 95° C. for 1 minute, 57° C. for 45 seconds, 72° C. for 1 minute for 25-30 cycles, and a final incubation at 72° C. for 10 minutes. PCR products were separated on 1.2% agarose gels, visualized by ethidium bromide staining, and quantified using a ChemiImage System (Alpha Innotech Corporation, San Leandro, Calif.).
For Northern blotting, 15 μg of total RNA from each sample was fractionated on 1% formaldehyde/agarose gels and transferred to Hybond-N nylon membranes (Amersham Pharmacia, Piscataway, N.J.). Filters were hybridized with probes for Ngb MRNA, and β-actin mRNA at 68° C. in hybridization buffer (Clontech, Palo Alto, Calif.). ^32P-radiolabeled DNA probes were synthesized using cDNA obtained from RT-PCR amplification.
Quantitative RT-PCR analysis was carried out as described previously.8 PCR reactions were carried out in a total volume of 25 μl containing 1 μI cDNA, 1×PCR buffer (Boehringer Mannheim), 200 μM dNTPs, 0.6 U Taq DNA polymerase (Boehringer Mannheim), two pairs of primers (one pair for the Ngb gene, another for the b-actin gene used as an internal control). The optimal conditions for amplification (the proportion between the two pairs of primers, temperatures, and cycle numbers) were determined experimentally according to previously established procedures.8 PCR products were separated on 1.2% agarose gels, visualized by ethidium bromide staining, and quantified using a ChemiImage System (Alpha Innotech Corporation).

Ngb protein = Ngb protein expression in HN33 cells (Western blot); type: cell-based, mouse
Protocol: as §1
Cells were washed twice in PBS, and whole-cell extracts were prepared by adding 10 volumes of 1× sample buffer containing 2% SDS, 100 mM dithiothreitol, 60 mM Tris (pH 6.8) and 10% glycerol, and boiled for 5 minutes. Protein concentrations were determined using Bradford Protein Assays (Bio-Rad, Hercules, Calif.); 30 μg of protein was analyzed by 12% or 15% SDS-PAGE and transferred to Immuno-Blot PVDF membranes (Bio-Rad). Membranes were probed with affinity-purified anti-Ngb antibody, which was produced by immunizing with a synthetic peptide corresponding to amino-acids 35-50 (NH2-CLSSPEFLDHIRKVML-COOH, (SEQ ID NO:11) of mouse Ngb (Sun et aL (2001 Proc Natl Acad Sci USA. 98:15306-15311),and the signal was detected with Boehringer Mannheim chemiluminescence blotting kits. Differences in protein expression on Western blots were quantified using a GS-710 calibrated imaging densitometer and Quantity One software (Bio-Rad).

K562 cells = conditions: 50 μM hemin for 2-3 days; cited from earlier work
HN33 cells = experiment: HN33 cell viability (MTT); type: cell-based, mouse
Protocol: Cell viability was assessed by measuring formazan produced by the reduction of 3-(4,5-dimethylthiazol-2-yl)-2,5-diphenyl tetrazolium bromide (MTT) in viable cells.3 Cells were incubated with 5 mg/ml of MTT (Sigma) at 37° C. for 2 hours. The medium was removed and cells were solubilized with dimethylsufoxide and transferred to 96-well plates. The formazan reduction product was detected by measuring absorbance at 570 nm in a Cytofluor Series 4000 multi-well plate-reader (PerSeptive Biosystems, Framingham, Mass.). Results were expressed as a percentage of control absorbance, measured in normoxic cultures, after subtracting background absorbance (measured in freeze-thawed cultures) from all values.

Substance: hemin
- cGMP levels by 24 hours (cGMP; 50 μM hemin): returned to near basal levels
- increase in cGMP levels (cGMP; 50 μM hemin for 2 to 12 hours): 8- to 15 fold
- increase in cGMP levels (summary) (cGMP; hemin): > 10 fold
- effect on hypoxic induction of vascular endothelial growth factor [1]: suppress
- neuroprotection: viable neurons in cerebral cortex and striatum [2]: significantly increases the number of viable neurons
- maximal increase in neuroglobin mRNA level (Ngb mRNA; 50 μM hemin, 8-24 hours): about 4 fold
- Ngb mRNA levels (Northern blot) (Ngb mRNA; HN33 cells, 50 μM hemin for 16 hours): about 4 fold
- Maximal induction of Ngb mRNA expression (RT-PCR, normalized for β-actin) (Ngb mRNA; HN33 cells, hemin 24 h, maximal at 25-50 μM): 4 fold
- maximal increase in neuroglobin protein level (Ngb protein; 50 μM hemin, 8-24 hours): about 4 fold
- persistence of Ngb protein induction (Ngb protein; HN33 cells, 50 μM hemin): at least 3 days
- time at which induction of Ngb protein was evident (Ngb protein; HN33 cells, 50 μM hemin): 2 h
- induction of Ngb protein (Ngb protein; HN33 cells, 50 μM hemin for up to 3 days): about 4 times basal levels of expression
- cells producing a high level of hemoglobin (K562 cells): more than 50%
- difference in viability relative to control (HN33 cells; 100 μM hemin, 24 hours, HN33 cells): significant (P<0.05) difference in viability
- reduction of cell viability (HN33 cells; 100 μM hemin, HN33 cells, MTT): ~15%
- effect on HN33 cell viability (HN33 cells; hemin 0-50 μM for 24 h, or 50 μM for up to 3 days, MTT): no effect on cell viability; also recorded: does not alter HN33 cell viability
